Measurements from PubChem BioAssay (NCI).
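Test compounds were applied to cells in 96-well plates for 48 hours at 5 doses. The concentration for full growth arrest is given as TGI.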

Legend:
Experiment in all cases: NCI-60 cell line screen, 48 h
HCC-2998 colon = tested on: HCC-2998 colon
A549 NSCLC = tested on: A549 NSCLC
RPMI-8226 leukemia = tested on: RPMI-8226 leukemia
HT29 colon = tested on: HT29 colon
COLO 205 colon = tested on: COLO 205 colon
HS 578T breast = tested on: HS 578T breast
CCRF-CEM leukemia = tested on: CCRF-CEM leukemia
M14 melanoma = tested on: M14 melanoma
MDA-MB-231 breast = tested on: MDA-MB-231 breast
LOX IMVI melanoma = tested on: LOX IMVI melanoma
SW-620 colon = tested on: SW-620 colon
HOP-62 NSCLC = tested on: HOP-62 NSCLC
OVCAR-3 ovarian = tested on: OVCAR-3 ovarian
CAKI-1 renal = tested on: CAKI-1 renal
NCI/ADR-RES ovarian = tested on: NCI/ADR-RES ovarian
SK-MEL-5 melanoma = tested on: SK-MEL-5 melanoma
UACC-257 melanoma = tested on: UACC-257 melanoma
MDA-MB-435 = tested on: MDA-MB-435
U251 CNS = tested on: U251 CNS
OVCAR-5 ovarian = tested on: OVCAR-5 ovarian
786-0 renal = tested on: 786-0 renal
SF-539 CNS = tested on: SF-539 CNS
HOP-92 NSCLC = tested on: HOP-92 NSCLC
SNB-19 CNS = tested on: SNB-19 CNS
K-562 leukemia = tested on: K-562 leukemia
ACHN renal = tested on: ACHN renal
TK-10 renal = tested on: TK-10 renal
MOLT-4 leukemia = tested on: MOLT-4 leukemia
NCI-H460 lung = tested on: NCI-H460 lung
SR leukemia = tested on: SR leukemia
SN12C renal = tested on: SN12C renal
SK-OV-3 ovarian = tested on: SK-OV-3 ovarian
MCF7 breast = tested on: MCF7 breast
UACC-62 melanoma = tested on: UACC-62 melanoma
BT-549 breast = tested on: BT-549 breast
OVCAR-8 ovarian = tested on: OVCAR-8 ovarian
OVCAR-4 ovarian = tested on: OVCAR-4 ovarian
EKVX NSCLC = tested on: EKVX NSCLC
HL-60(TB) leukemia = tested on: HL-60(TB) leukemia
HCT-15 colon = tested on: HCT-15 colon
MDA-N = tested on: MDA-N
SK-MEL-28 melanoma = tested on: SK-MEL-28 melanoma
A498 renal = tested on: A498 renal
DU-145 prostate = tested on: DU-145 prostate
PC-3 prostate = tested on: PC-3 prostate
SF-295 CNS = tested on: SF-295 CNS
NCI-H226 lung = tested on: NCI-H226 lung
MALME-3M melanoma = tested on: MALME-3M melanoma
KM12 colon = tested on: KM12 colon
NCI-H23 lung = tested on: NCI-H23 lung
HCT-116 colon = tested on: HCT-116 colon
T-47D breast = tested on: T-47D breast
UO-31 renal = tested on: UO-31 renal
SK-MEL-2 melanoma = tested on: SK-MEL-2 melanoma
IGROV1 ovarian = tested on: IGROV1 ovarian
SNB-75 CNS = tested on: SNB-75 CNS
SF-268 CNS = tested on: SF-268 CNS
NCI-H522 lung = tested on: NCI-H522 lung

COC(=O)C#Cc1cccc(OC)c1OC
TGI (HCC-2998 colon): 48.2 µM | TGI (A549 NSCLC): > 100 µM | TGI (RPMI-8226 leukemia): > 100 µM | TGI (HT29 colon): 79.2 µM | TGI (COLO 205 colon): 65.7 µM | TGI (HS 578T breast): > 100 µM | TGI (CCRF-CEM leukemia): 67.9 µM | TGI (M14 melanoma): > 100 µM | TGI (MDA-MB-231 breast): > 100 µM | TGI (LOX IMVI melanoma): > 100 µM | TGI (SW-620 colon): > 100 µM | TGI (HOP-62 NSCLC): > 100 µM | TGI (OVCAR-3 ovarian): > 100 µM | TGI (CAKI-1 renal): 68.3 µM | TGI (NCI/ADR-RES ovarian): 99 µM | TGI (SK-MEL-5 melanoma): > 100 µM | TGI (UACC-257 melanoma): > 100 µM | TGI (MDA-MB-435): > 100 µM | TGI (U251 CNS): > 100 µM | TGI (OVCAR-5 ovarian): 51.3 µM | TGI (786-0 renal): > 100 µM | TGI (SF-539 CNS): 46.4 µM | TGI (HOP-92 NSCLC): 66.1 µM | TGI (SNB-19 CNS): > 100 µM | TGI (K-562 leukemia): 55.1 µM | TGI (ACHN renal): > 100 µM | TGI (TK-10 renal): > 100 µM | TGI (MOLT-4 leukemia): 35.4 µM | TGI (NCI-H460 lung): > 100 µM | TGI (SR leukemia): 44.8 µM | TGI (SN12C renal): > 100 µM | TGI (SK-OV-3 ovarian): > 100 µM | TGI (MCF7 breast): 55.6 µM | TGI (UACC-62 melanoma): > 100 µM | TGI (BT-549 breast): > 100 µM | TGI (OVCAR-8 ovarian): > 100 µM | TGI (OVCAR-4 ovarian): 36.2 µM | TGI (EKVX NSCLC): 54.4 µM | TGI (HL-60(TB) leukemia): > 100 µM | TGI (HCT-15 colon): > 100 µM | TGI (MDA-N): > 100 µM | TGI (SK-MEL-28 melanoma): > 100 µM | TGI (A498 renal): > 100 µM | TGI (DU-145 prostate): > 100 µM | TGI (PC-3 prostate): > 100 µM | TGI (SF-295 CNS): > 100 µM | TGI (NCI-H226 lung): > 100 µM | TGI (MALME-3M melanoma): > 100 µM | TGI (KM12 colon): > 100 µM | TGI (NCI-H23 lung): > 100 µM | TGI (HCT-116 colon): > 100 µM | TGI (T-47D breast): > 100 µM | TGI (UO-31 renal): 37.9 µM

Cc1ccc(Cc2nc(=S)[nH][nH]2)cc1
TGI (HCC-2998 colon): > 100 µM | TGI (A549 NSCLC): > 100 µM | TGI (HT29 colon): > 100 µM | TGI (COLO 205 colon): > 100 µM | TGI (HS 578T breast): > 100 µM | TGI (CCRF-CEM leukemia): > 100 µM | TGI (M14 melanoma): > 100 µM | TGI (MDA-MB-231 breast): > 100 µM | TGI (LOX IMVI melanoma): > 100 µM | TGI (SW-620 colon): > 100 µM | TGI (HOP-62 NSCLC): > 100 µM | TGI (OVCAR-3 ovarian): > 100 µM | TGI (CAKI-1 renal): > 100 µM | TGI (NCI/ADR-RES ovarian): > 100 µM | TGI (SK-MEL-5 melanoma): > 100 µM | TGI (UACC-257 melanoma): > 100 µM | TGI (MDA-MB-435): > 100 µM | TGI (U251 CNS): > 100 µM | TGI (OVCAR-5 ovarian): > 100 µM | TGI (786-0 renal): > 100 µM | TGI (SK-MEL-2 melanoma): > 100 µM | TGI (SF-539 CNS): > 100 µM | TGI (HOP-92 NSCLC): > 100 µM | TGI (SNB-19 CNS): > 100 µM | TGI (K-562 leukemia): > 100 µM | TGI (ACHN renal): > 100 µM | TGI (TK-10 renal): > 100 µM | TGI (MOLT-4 leukemia): > 100 µM | TGI (NCI-H460 lung): > 100 µM | TGI (SR leukemia): > 100 µM | TGI (SN12C renal): > 100 µM | TGI (SK-OV-3 ovarian): > 100 µM | TGI (MCF7 breast): > 100 µM | TGI (UACC-62 melanoma): > 100 µM | TGI (BT-549 breast): > 100 µM | TGI (OVCAR-8 ovarian): > 100 µM | TGI (OVCAR-4 ovarian): 96.5 µM | TGI (EKVX NSCLC): > 100 µM | TGI (HL-60(TB) leukemia): 97.9 µM | TGI (HCT-15 colon): > 100 µM | TGI (MDA-N): > 100 µM | TGI (SK-MEL-28 melanoma): > 100 µM | TGI (A498 renal): > 100 µM | TGI (DU-145 prostate): > 100 µM | TGI (PC-3 prostate): > 100 µM | TGI (SF-295 CNS): > 100 µM | TGI (IGROV1 ovarian): > 100 µM | TGI (SNB-75 CNS): > 100 µM | TGI (NCI-H226 lung): > 100 µM | TGI (MALME-3M melanoma): > 100 µM | TGI (KM12 colon): > 100 µM | TGI (NCI-H23 lung): > 100 µM | TGI (HCT-116 colon): > 100 µM | TGI (T-47D breast): > 100 µM | TGI (UO-31 renal): > 100 µM

CCCNc1[nH]c(C(=O)c2ccccc2)c(N)c1C(=S)Nc1ccccc1
TGI (SF-268 CNS): > 100 µM | TGI (HCC-2998 colon): > 100 µM | TGI (A549 NSCLC): > 100 µM | TGI (HT29 colon): > 100 µM | TGI (COLO 205 colon): > 100 µM | TGI (HS 578T breast): > 100 µM | TGI (CCRF-CEM leukemia): > 100 µM | TGI (M14 melanoma): > 100 µM | TGI (MDA-MB-231 breast): > 100 µM | TGI (LOX IMVI melanoma): > 100 µM | TGI (SW-620 colon): > 100 µM | TGI (HOP-62 NSCLC): > 100 µM | TGI (OVCAR-3 ovarian): > 100 µM | TGI (CAKI-1 renal): > 100 µM | TGI (NCI/ADR-RES ovarian): > 100 µM | TGI (SK-MEL-5 melanoma): > 100 µM | TGI (UACC-257 melanoma): > 100 µM | TGI (MDA-MB-435): > 100 µM | TGI (U251 CNS): > 100 µM | TGI (OVCAR-5 ovarian): > 100 µM | TGI (786-0 renal): > 100 µM | TGI (SK-MEL-2 melanoma): > 100 µM | TGI (SF-539 CNS): > 100 µM | TGI (HOP-92 NSCLC): > 100 µM | TGI (SNB-19 CNS): > 100 µM | TGI (K-562 leukemia): > 100 µM | TGI (ACHN renal): > 100 µM | TGI (TK-10 renal): > 100 µM | TGI (MOLT-4 leukemia): > 100 µM | TGI (NCI-H460 lung): > 100 µM | TGI (SR leukemia): > 100 µM | TGI (SN12C renal): > 100 µM | TGI (SK-OV-3 ovarian): > 100 µM | TGI (MCF7 breast): > 100 µM | TGI (UACC-62 melanoma): > 100 µM | TGI (BT-549 breast): > 100 µM | TGI (OVCAR-8 ovarian): > 100 µM | TGI (OVCAR-4 ovarian): > 100 µM | TGI (EKVX NSCLC): > 100 µM | TGI (NCI-H522 lung): > 100 µM | TGI (HL-60(TB) leukemia): > 100 µM | TGI (HCT-15 colon): > 100 µM | TGI (MDA-N): > 100 µM | TGI (SK-MEL-28 melanoma): > 100 µM | TGI (A498 renal): > 100 µM | TGI (DU-145 prostate): > 100 µM | TGI (PC-3 prostate): > 100 µM | TGI (SF-295 CNS): > 100 µM | TGI (IGROV1 ovarian): > 100 µM | TGI (SNB-75 CNS): > 100 µM | TGI (NCI-H226 lung): > 100 µM | TGI (MALME-3M melanoma): > 100 µM | TGI (KM12 colon): > 100 µM | TGI (NCI-H23 lung): > 100 µM | TGI (HCT-116 colon): > 100 µM | TGI (T-47D breast): > 100 µM | TGI (UO-31 renal): > 100 µM
